PubChem BioAssay (NCI)
Where “and” joins values, the source holds several entries; their conditions need not be identical. Equal entries are not always repeated.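 Interpolation was linear, between the two tested concentrations surrounding the appropriate level; five concentrations were tested over 48 hours in 96-well plates. Abbreviation: GI50, concentration required for 50% inhibition of growth. TGI marks complete inhibition of growth.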

Columns and labels:
Experiment in all cases: inhibition of tumour cell growth, NCI panel, 48 h
DU-145 prostate = system: DU-145 prostate
SK-MEL-2 melanoma = system: SK-MEL-2 melanoma
CAKI-1 renal = system: CAKI-1 renal
OVCAR-3 ovarian = system: OVCAR-3 ovarian
SW-620 colon = system: SW-620 colon
UO-31 renal = system: UO-31 renal
SK-MEL-5 melanoma = system: SK-MEL-5 melanoma
TK-10 renal = system: TK-10 renal
KM12 colon = system: KM12 colon
MOLT-4 leukemia = system: MOLT-4 leukemia

| SMILES | GI50 (DU-145 prostate) | TGI (DU-145 prostate) | GI50 (SK-MEL-2 melanoma) | TGI (SK-MEL-2 melanoma) | GI50 (CAKI-1 renal) | TGI (CAKI-1 renal) | GI50 (OVCAR-3 ovarian) | TGI (OVCAR-3 ovarian) | GI50 (SW-620 colon) | TGI (SW-620 colon) | GI50 (UO-31 renal) | TGI (UO-31 renal) | GI50 (SK-MEL-5 melanoma) | TGI (SK-MEL-5 melanoma) | GI50 (TK-10 renal) | TGI (TK-10 renal) | GI50 (KM12 colon) | TGI (KM12 colon) | GI50 (MOLT-4 leukemia) | TGI (MOLT-4 leukemia) |
| --- | --- | --- | --- | --- | --- | --- | --- | --- | --- | --- | --- | --- | --- | --- | --- | --- | --- | --- | --- | --- |
| C=C[C@@H]1CCC/C=C/[C@@H]2C[C@H](O)C[C@H]2[C@H](O)/C=C/C(=O)O1 | 3.82 µM | > 100 µM | 0.832 µM | 8.53 µM | 1.89 µM | > 50.3 µM | 0.427 µM | 4.18 µM | 0.361 µM | 1.57 µM | 0.37 µM | > 100 µM | 0.175 µM | 0.331 µM | 0.554 µM | 19.8 µM | 0.35 µM | 1.35 µM | 1.16 µM | > 31.4 µM |
| COc1cccc(C2SC(C)C(=O)N2NC(=O)C(O)c2ccccc2)c1 (stereo unspecified) | > 100 µM | > 100 µM | > 100 µM | > 100 µM | > 100 µM | > 100 µM | > 100 µM | > 100 µM | > 100 µM | > 100 µM | > 100 µM | > 100 µM | > 100 µM | > 100 µM | > 100 µM | > 100 µM | > 100 µM | > 100 µM | > 100 µM | > 100 µM |
| COc1ccc(Cc2ccc3[nH]c(=O)cc(C)c3c2)cc1S(=O)(=O)O | – | > 100 µM | – | > 100 µM | – | > 100 µM | – | > 100 µM | – | > 100 µM | – | > 100 µM | – | > 100 µM | – | > 100 µM | – | > 100 µM | – | > 100 µM |
| COc1ccc2c(c1)/C(=C\c1c(-c3ccccc3)nc3sccn13)C(=O)N2 | 3.01 µM | 12.6 µM | 18 µM | 44.5 µM | 0.0357 µM | 0.37 µM | 0.122 µM | 0.444 µM | – | > 49.6 µM | 7.29 µM | > 43.7 µM | 6.06 µM | 21.3 µM | > 23.4 µM | > 72.9 µM | 1.55 µM | – | 12.5 µM | > 44.5 µM |
| O=C(O)c1nn(-c2ccc(Cl)cc2)c2c1C(=O)c1ccccc1C2=O | – | > 100 µM | – | > 100 µM | – | > 100 µM | – | > 100 µM | – | > 100 µM | – | > 100 µM | – | 53.6 µM | – | > 100 µM | – | > 100 µM | – | 88 µM |
| Oc1ccc(Br)cc1C=NC1CCCCC1 | – | > 100 µM | – | 74.2 µM | – | > 100 µM | – | > 100 µM | – | > 100 µM | – | > 100 µM | – | 43.8 µM | – | > 100 µM | – | > 100 µM | – | > 100 µM |
| COc1cc(/C=C2\C[C@H]3[C@@H]4CC=C5C[C@@H](O)CC[C@]5(C)[C@H]4CC[C@]3(C)[C@H]2O)ccc1OCCN1CCCCC1 | 1.61 µM | 4.58 µM | 5 µM | > 50 µM | 1.74 µM | 3.36 µM | 0.772 µM | 1.53 µM | 0.76 µM | – | 1.18 µM | – | 0.576 µM | 1.19 µM | 1.61 µM | 3.64 µM | 0.912 µM | 2.12 µM | 3.07 µM | > 50 µM |
| N#Cc1c(N)c(C(=O)c2ccc3c(c2)OCCO3)n2c1CCCC2 | 4.45 µM | > 100 µM | 4.06 µM | > 100 µM | 3.18 µM | > 100 µM | 2.88 µM | > 28.3 µM | 2.07 µM | > 100 µM | 6.3 µM | > 100 µM | 3.32 µM | > 100 µM | > 28.5 µM | > 100 µM | 1.37 µM | > 100 µM | 4.19 µM | > 100 µM |
| COc1cccc(/C=C2\N=C(Cl)OC2=O)c1O | – | > 100 µM | – | > 100 µM | – | > 100 µM | – | > 100 µM | – | > 100 µM | – | > 100 µM | – | > 100 µM | – | > 100 µM | – | > 100 µM | – | > 100 µM |
| C[C@]1(c2nc3c(C(N)=O)cccc3[nH]2)CCCN1 | 74 µM and > 100 µM | > 100 µM | 79.4 µM and > 100 µM | > 100 µM | 59 µM and 74.9 µM | > 100 µM | 53.6 µM and > 100 µM | > 100 µM | 89.4 µM and > 100 µM | > 100 µM | > 92.8 µM | > 100 µM | > 76.4 µM and 98.5 µM | > 100 µM | > 100 µM | > 100 µM | 61.9 µM and > 86.2 µM | > 100 µM | > 100 µM | > 100 µM |
| OCC#Cc1ccccc1C#Cc1ccc(C#Cc2ccccc2C#CCO)cc1 | 27.3 µM | 91.3 µM | 36.2 µM | 79.9 µM | 68.3 µM | > 100 µM | 20 µM | 56.6 µM | 38.1 µM | > 100 µM | 36 µM | > 100 µM | 23.7 µM | 59.3 µM | 52.8 µM | > 100 µM | 95.8 µM | > 100 µM | 15.9 µM | 39.6 µM |
| NC(=O)c1ccc(I)c([N+](=O)[O-])c1 | > 95.3 µM | > 100 µM | > 100 µM | > 100 µM | 32.2 µM | > 57.4 µM | 55 µM | > 100 µM | > 100 µM | > 100 µM | > 100 µM | > 100 µM | > 100 µM | > 100 µM | > 100 µM | > 100 µM | > 100 µM | > 100 µM | > 71.2 µM | > 100 µM |
